# Results from publication PMC11281459 (Viruses, 2024).
# How the values were obtained:
# SARS-CoV-2 [1] = assay: microbe, parasite or virus in culture; assay type: cell-based; details: Severe acute respiratory syndrome coronavirus 2, VeroE6/TMPRSS2, 48 h, read-out: IC50 values across different SARS-CoV-2 Omicron subvariants
# SARS-CoV-2 [2] = assay: microbe, parasite or virus in culture; assay type: cell-based; details: Severe acute respiratory syndrome coronavirus 2, VeroE6/TMPRSS2, 72 h, read-out: EC50 across SARS-CoV-2 Omicron subvariants (CPE by CellTiter-Glo)
compound,measurement,setting,value
CNC(=O)C(=O)[C@H](CCC(C)(F)F)NC(=O)[C@@H]1[C@H]2CCC[C@H]2CN1C(=O)[C@@H](NC(=O)OC)C(C)(C)C [MK-7845],IC50,SARS-CoV-2 [1],80 to 300 nM
same,EC50,SARS-CoV-2 [2],90 to 330 nM
